Measurements published in patent US20120083471A1, “Novel Compounds, Pharmaceutical Compositions Containing Same, Methods of Use for Same, and Methods for Preparing Same” (priority 2008, published 2012).
“Also recorded” adds a separate entry of the source. Like-named read-outs stand apart in the source and are kept apart here.

Tests used:
[1] = test system: 3T3-L1 adipocytes; assay: Acylglyceride synthesis in 3T3-L1 adipocytes ([14C]palmitate labelling, TLC); type: cell-based, mouse; conditions: for IC50: Mus musculus, 3T3-L1 adipocytes 7 days post-differentiation, 18 h treatment, linear regression, n=3
Description: 3T3-L1 Adipocytes 3T3-L1 cells were differentiated into adipocytes as described 34. Seven days post-differentiation, cells were treated with FSG67 at indicated concentrations for 18 h, then labeled with [14C]palmitate for 2 h. Following Folch extraction, lipids were subjected to polar and non-polar thin-layer chromatography 35. Triglyceride and phosphatidylcholine fractions were quantified with phosphorimaging (Storm 840, Molecular Dynamics, Piscataway, N.J.).
Mouse 3T3-L1 adipocytes were used to test the effect FSG67 on acylglyceride synthesis in vitro. […] As phosphatidylcholine was the predominant phospholipid synthesized in the 3T3-L1 adipocytes, it is representative of overall cellular phospholipid synthesis. […] Note the decrease in lipid droplets in the FSG67 treated cells compared to vehicle treated controls. Thus, FSG67 inhibits cellular acylglyceride synthesis with an IC50 similar to its inhibition of GPAT activity in mitochondrial preparations.

[2] = test system: DIO mice; assay: Chronic 16 d FSG67 treatment of DIO mice with indirect calorimetry and pair-fed group; type: in vivo, mouse; conditions: 5 mg/kg ip daily
Description: For acute studies, 6 DIO or lean mice were treated with a single dose of FSG67 (20 mg/kg, i.p.) approximately 3 hrs past lights-on. Animal weights and food consumption were measured 18 h after treatment. Following euthanization, the hypothalmuses were harvested to measure orexigenic and anorexigenic neuropeptide gene expression. In the chronic studies, DIO mice, 4-10 animals per group, were treated daily with FSG67 (5 mg/kg, i.p.) or with RMPI vehicle for the days indicated. Body weight and food intake were measured daily. In one study, a cohort of mice was pair-fed with amounts consumed by the FSG67-treated animals and mice were monitored with indirect calorimetry (Oxymax Equal Flow System®, Columbus Instruments, Columbus, Ohio). Measurements of VO2 (ml/kg/hr) and VCO2 (ml/kg/hr) were performed and recorded every 15 min. The respiratory exchange ratio (RER) was calculated by Oxymax software, version 5.9, and is defined as ratio of VCO2 to VO2 33. After completion of the treatment course, animals were euthanized by CO2 inhalation 4 hrs following the final dose of FSG67. Tissues were harvested immediately for RNA extraction; serum was collected and analyzed for glucose, cholesterol, and triglyceride measurements (Bioanalytics, Gaithersburg, Md.). Fresh liver tissue was snap frozen in liquid N2, sectioned, and stained with hematoxylin and Oil Red O to visualize triglyceride droplets.
In the second chronic treatment study, indirect calorimetry was utilized to study changes in metabolism during GPAT inhibition. DIO mice (8 per group) were treated with FSG67 (5 mg/kg, ip), or pair-fed to FSG67 treated animals. Indirect calorimetry was utilized to measure changes in oxygen consumption (VO2) and respiratory exchange ratio (RER) between pair-fed and treated animals. After 16 days of treatment, the FSG67 treated mice lost 9.5±0.6% of body mass, pair-fed lost 5.5±0.9%, while vehicle controls gained 3.5±1.3% (FIG. 12c). The weight loss in the FSG67 treated animals was significant compared to both vehicle controls and pair-fed animals (p<0.0001, 2-way ANOVA). […] RER was reduced in FSG67 treated mice (0.732±0.002) compared to pair-fed (0.782±0.006) (p<0.0001, 2-way ANOVA) (FIG. 12f) indicating increased use of fatty acids for fuel in the FSG67 treated animals. The combination of increased VO2 and reduced RER in the FSG67 treated animals are consistent with increased fatty acid oxidation and energy utilization which likely contribute to their reduced body mass compared to the pair-fed controls.

[3] = biological target: T1, mouse mitochondrial GPAT (Mus musculus, UniProt Q61586); conditions: reference 12; read-out: reported IC50 for mouse mitochondrial GPAT activity; cited from earlier work
T1 sequence (Q61586 1-827): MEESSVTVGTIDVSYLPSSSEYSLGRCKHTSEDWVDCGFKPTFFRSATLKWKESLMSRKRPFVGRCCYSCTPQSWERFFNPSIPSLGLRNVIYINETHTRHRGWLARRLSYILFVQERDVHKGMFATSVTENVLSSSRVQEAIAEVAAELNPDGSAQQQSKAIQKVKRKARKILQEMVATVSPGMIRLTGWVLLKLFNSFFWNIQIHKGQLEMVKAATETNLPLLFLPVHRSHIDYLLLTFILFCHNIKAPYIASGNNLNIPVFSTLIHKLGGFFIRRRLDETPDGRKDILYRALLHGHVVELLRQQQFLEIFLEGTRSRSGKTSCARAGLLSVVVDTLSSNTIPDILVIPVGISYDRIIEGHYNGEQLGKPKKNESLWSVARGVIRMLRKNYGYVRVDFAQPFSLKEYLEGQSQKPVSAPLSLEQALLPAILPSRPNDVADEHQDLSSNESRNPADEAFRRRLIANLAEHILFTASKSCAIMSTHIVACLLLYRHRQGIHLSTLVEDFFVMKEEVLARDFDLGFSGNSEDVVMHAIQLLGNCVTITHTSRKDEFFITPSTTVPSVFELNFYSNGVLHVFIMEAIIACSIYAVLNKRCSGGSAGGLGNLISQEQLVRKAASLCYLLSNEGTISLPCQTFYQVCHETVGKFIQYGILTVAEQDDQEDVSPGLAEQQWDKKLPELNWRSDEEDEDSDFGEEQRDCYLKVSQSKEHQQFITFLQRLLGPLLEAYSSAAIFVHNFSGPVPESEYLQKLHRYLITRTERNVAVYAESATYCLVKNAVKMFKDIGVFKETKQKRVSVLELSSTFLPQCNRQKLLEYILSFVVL

CCCCCCCCCS(=O)(=O)Nc1ccccc1C(=O)O [Compound 15g, 2-(Nonylsulfonamido)benzoic acid]
triglyceride / lipid droplet accumulation ([1]; 3T3-L1 adipocytes, 48 h following treatment, photomicrographs, listed as FSG67): dose-dependent reduction; also recorded: reduction in lipid droplet accumulation
IC50 ([1]; read-out: IC50 for cellular triglyceride synthesis): 33.9 µM
IC50 ([1]; read-out: IC50 for phosphatidylcholine synthesis): 36.3 µM
average daily food consumption ([2]; 16 days): 2.0 ± 0.1 g/day
body mass lost ([2]; 16 days): 9.5±0.6%
reduction of average daily food consumption vs vehicle ([2]; 16 days): 33%
average RER ([2]; indirect calorimetry): 0.732±0.002
average VO2, % of pre-treatment value ([2]; indirect calorimetry): 106.5±1.1%
IC50 [3]: 24.7 µM
